≈ marks a conversion by molar mass, not a printed value.
Legend:
[1] = tested on: Mycobacterium tuberculosis; assay: Antituberculosis activity against Mycobacterium tuberculosis at a concentration of 12.5 ug/mL; type: functional
[2] = tested on: Mycobacterium tuberculosis; assay: Minimum inhibitory concentration against Mycobacterium tuberculosis; type: functional

| Compound | inhibition at 12.5 µg/mL [1] | MIC [2] |
| --- | --- | --- |
| COc1ccc(-c2cc(=O)c3c(OC)c(-c4cc(OC)ccc4-c4cc(=O)c5c(OC)cc(OC)cc5o4)c(OC)cc3o2)cc1 | 1% |  |
| O=C1CC(c2ccc(O)cc2)Oc2c1c(O)cc(O[C@]1(O)O[C@H](CO)[C@@H](O)C(O)[C@H]1O)c2C1C(=O)c2c(O)cc(O)cc2OC1c1ccc(O)cc1 (single isomer, unassigned) | 0% |  |
| O=C1c2c(O)cc(O)cc2OC(c2ccc(O)cc2)C1c1c(O[C@]2(O)O[C@H](CO)[C@@H](O)C(O)[C@H]2O)cc(O)c2c(=O)cc(-c3ccc(O)cc3)oc12 (single isomer, unassigned) | 0% |  |
| O=C1CC(c2ccc(O)c(O)c2)Oc2c1c(O)cc(O)c2C1C(=O)c2c(O)cc(O)cc2OC1c1ccc(O)cc1 (centres undefined) | 0% |  |
| CC(=O)Oc1ccc(C2Oc3cc(OC(C)=O)cc(OC(C)=O)c3C(=O)C2c2c(OC(C)=O)cc(OC(C)=O)c3c2OC(c2ccc(OC(C)=O)c(OC(C)=O)c2)CC3=O)cc1 (centres undefined) | 0% |  |
| O=c1cc(-c2ccccc2)oc2ccc(-c3ccccc3-c3cc(=O)c4ccccc4o3)cc12 | 9% |  |
| O=c1cc(-c2cccc(-c3ccc4c(=O)cc(-c5ccccc5)oc4c3)c2)oc2ccccc12 | 0% |  |
| O=C1CC(c2ccc(O)c(O)c2)Oc2c1c(O)cc(O[C@]1(O)O[C@H](CO)[C@@H](O)C(O)[C@H]1O)c2C1C(=O)c2c(O)cc(O)cc2OC1c1ccc(O)cc1 (single isomer, unassigned) | 0% |  |
| O=c1cc(-c2ccccc2-c2cccc3c(=O)cc(-c4ccccc4)oc23)oc2ccccc12 | 0% |  |
| O=c1cc(-c2ccc(Oc3c(-c4cccc([N+](=O)[O-])c4)oc4ccccc4c3=O)cc2)oc2ccccc12 | 61% |  |
| CC(=O)Oc1ccc(C2CC(=O)c3c(cc(OC(C)=O)c(-c4c(OC(C)=O)cc5c(c4OC(C)=O)C(=O)CC(c4ccc(OC(C)=O)cc4)O5)c3OC(C)=O)O2)cc1 (centres undefined) | 0% |  |
| O=c1cc(-c2cccc(-c3cccc4c(=O)cc(-c5ccccc5)oc34)c2)oc2ccccc12 | 49% |  |
| COc1ccc2c(c1)OC(c1ccccc1)C(C1C(=O)c3ccc(OC)cc3OC1c1ccccc1)C2=O (centres undefined) | 0% |  |
| O=c1cc(-c2ccc(O)c(-c3c(O)cc4oc(-c5ccc(O)cc5)cc(=O)c4c3O)c2)oc2cc(O)cc(O)c12 [ROBUSTAFLAVONE] | 0% |  |
| COc1ccc(-c2cc(=O)c3c(OC)c(-c4c(OC)cc5oc(-c6ccc(OC)cc6)cc(=O)c5c4OC)c(OC)cc3o2)cc1 | 96% | > 12.5 µg/mL |
| O=C1CC(c2ccc(O)cc2)Oc2cc(O)c(-c3c(O)cc4c(c3O)C(=O)CC(c3ccc(O)cc3)O4)c(O)c21 (centres undefined) | 0% |  |
| O=c1cc(-c2ccc(Oc3c(O)cc4oc(-c5ccc(O)cc5)cc(=O)c4c3O)cc2)oc2cc(O)cc(O)c12 [HINOKIFLAVONE] | 0% |  |
| O=C1CC(c2ccc(O)cc2)Oc2cc(O)c(-c3c(O)cc(O)c4c3OC(c3ccc(O)cc3)CC4=O)c(O)c21 (centres undefined) | 0% |  |
| CC(=O)Oc1ccc(C2CC(=O)c3c(cc(OC(C)=O)c(-c4c(OC(C)=O)cc(OC(C)=O)c5c4OC(c4ccc(OC(C)=O)cc4)CC5=O)c3OC(C)=O)O2)cc1 (centres undefined) | 0% |  |
| COc1ccc(C2CC(=O)c3c(OC)cc(OC)c(C4C(=O)c5c(OC)cc(OC)cc5OC4c4ccc(OC)cc4)c3O2)cc1 (centres undefined) | 87% | > 12.5 µg/mL |
| COc1ccc(C2CC(=O)c3c(cc(OC)c(-c4c(OC)cc5c(c4OC)C(=O)CC(c4ccc(OC)cc4)O5)c3OC)O2)cc1 (centres undefined) | 2% |  |
| COc1ccc(-c2cc(=O)c3c(OC)cc(OC)c(C4C(=O)c5c(OC)cc(OC)cc5OC4c4ccc(OC)cc4)c3o2)cc1 (centres undefined) | 95% | 12.5 µg/mL (≈ 20 µM) |
| O=c1cc(-c2ccc(O)c(-c3c(O)cc(O)c4c(=O)cc(-c5ccc(O)cc5)oc34)c2)oc2cc(O)cc(O)c12 [AMENTOFLAVONE] | 0% |  |
| CC(=O)OC[C@H]1O[C@@](O)(Oc2cc(OC(C)=O)c3c(c2C2C(=O)c4c(OC(C)=O)cc(OC(C)=O)cc4OC2c2ccc(OC(C)=O)cc2)OC(c2ccc(OC(C)=O)cc2)CC3=O)[C@H](O)C(O)[C@@H]1O (single isomer, unassigned) | 0% |  |
| O=C1c2c(O)cc(O)cc2OC(c2ccc(O)cc2)C1c1c(O)cc(O)c2c(=O)cc(-c3ccc(O)c(O)c3)oc12 (centres undefined) | 0% |  |
| COc1ccc(-c2oc3cc(OC)cc(OC)c3c(=O)c2-c2c(-c3ccc(OC)cc3)oc3cc(OC)cc(OC)c3c2=O)cc1 | 0% |  |

Reference: ChEMBL document CHEMBL1133902, “Biflavonoids as novel antituberculosis agents” (2001)
